# US10597388B2, “Pyridazinone herbicides” (FMC CORPORATION, priority 2014, dated 2020)
# How the values were obtained:
# Experiment in all cases: Test D controlled growth environment herbicide test, pre- and postemergence
# Type in all cases: in vivo
# kochia (Kochia scoparia) = system: kochia (Kochia scoparia)
# In short: (§1)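 Pre-emergence: seeds sown in silt loam soil were sprayed with compound in a non-phytotoxic solvent mix containing surfactant. Post-emergence: plants at 2 to 18 cm (1- to 4-leaf stage) in peat moss/vermiculite medium got the same formulation. Visual 0–100 rating versus controls after 14 to 21 d.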
# [1] = system: canarygrass (Phalaris minor)
# In short: as §1
# [2] = system: chickweed (common chickweed, Stellaria media)
# In short: as §1
# [3] = system: wheat, spring (spring wheat, Triticum aestivum)
# In short: as §1
# [4] = system: windgrass (Apera spica-venti)
# In short: as §1
# [5] = system: Russian thistle (Salsola kali)
# In short: as §1
# [6] = system: wheat, winter (winter wheat, Triticum aestivum)
# In short: as §1
# [7] = system: deadnettle (henbit deadnettle, Lamium amplexicaule)
# In short: as §1
# [8] = system: ryegrass, Italian (Italian ryegrass, Lolium multiflorum)
# In short: as §1
# [9] = system: lambsquarters (Chenopodium album)
# In short: as §1
# [10] = system: foxtail, green (green foxtail, Setaria viridis)
# In short: as §1
# [11] = system: field violet (Viola arvensis)
# In short: as §1
# [12] = system: blackgrass (Alopecurus myosuroides)
# In short: as §1
# [13] = Postemergence, 31 g ai/ha, scale 0 to 100 (0 no effect, 100 complete control)
# [14] = Postemergence, 125 g ai/ha, visual rating on scale 0 (no effect) to 100 (complete control), 14 to 21 d
# [15] = Postemergence, 250 g ai/ha, scale 0 to 100 (0 no effect, 100 complete control)
# [16] = Preemergence, 62 g ai/ha, scale 0 to 100 (0 no effect, 100 complete control)
# [17] = Preemergence, 125 g ai/ha, scale 0 to 100 (0 no effect, 100 complete control)
# [18] = Preemergence, 250 g ai/ha, scale 0 to 100 (0 no effect, 100 complete control)
# [19] = postemergence, 62 g ai/ha, scale 0 to 100, 0 no effect, 100 complete control
structure (smiles),measurement,setting,value
CCOC(=O)Oc1c(C)nn(C)c(=O)c1-c1c(C)ccc2ccccc12 [Compound 73],Kochia plant response rating,kochia (Kochia scoparia); [13],100
same,"Plant response rating, Kochia",kochia (Kochia scoparia); [14],100
same,"Plant response rating, Kochia",kochia (Kochia scoparia); [15],100
same,"Plant response rating (scale of 0 to 100), Kochia","kochia (Kochia scoparia); Preemergence, 31 g ai/ha",30
same,"Plant response rating, Kochia",kochia (Kochia scoparia); [16],30
same,"Plant response rating, Kochia",kochia (Kochia scoparia); [17],85
same,"Plant response rating, Kochia",kochia (Kochia scoparia); [18],95
same,"Plant response rating, Kochia",kochia (Kochia scoparia); [19],80
same,Canarygrass plant response rating,[1]; [13],60
same,"Plant response rating, Canarygrass",[1]; [14],80
same,"Plant response rating, Canarygrass",[1]; [15],90
same,"Plant response rating (scale of 0 to 100), Canarygrass","[1]; Preemergence, 31 g ai/ha",80
same,"Plant response rating, Canarygrass",[1]; [16],85
same,"Plant response rating, Canarygrass",[1]; [17],90
same,"Plant response rating, Canarygrass",[1]; [18],100
same,"Plant response rating, Canarygrass",[1]; [19],70
same,Chickweed plant response rating,[2]; [13],90
same,"Plant response rating, Chickweed",[2]; [14],100
same,"Plant response rating, Chickweed",[2]; [15],100
same,"Plant response rating (scale of 0 to 100), Chickweed","[2]; Preemergence, 31 g ai/ha",95
same,"Plant response rating, Chickweed",[2]; [16],90
same,"Plant response rating, Chickweed",[2]; [17],100
same,"Plant response rating, Chickweed",[2]; [18],100
same,"Plant response rating, Chickweed",[2]; [19],95
same,"Wheat, Spring plant response rating",[3]; [13],45
same,"Plant response rating, Wheat, Spring",[3]; [14],70
same,"Plant response rating, Wheat, Spring",[3]; [15],85
same,"Plant response rating (scale of 0 to 100), Wheat, Spring","[3]; Preemergence, 31 g ai/ha",15
same,"Plant response rating, Wheat, Spring",[3]; [16],55
same,"Plant response rating, Wheat, Spring",[3]; [17],70
same,"Plant response rating, Wheat, Spring",[3]; [18],85
same,"Plant response rating, Wheat, Spring",[3]; [19],55
same,Windgrass plant response rating,[4]; [13],70
same,"Plant response rating, Windgrass",[4]; [14],75
same,"Plant response rating, Windgrass",[4]; [15],85
same,"Plant response rating (scale of 0 to 100), Windgrass","[4]; Preemergence, 31 g ai/ha",40
same,"Plant response rating, Windgrass",[4]; [16],65
same,"Plant response rating, Windgrass",[4]; [17],90
same,"Plant response rating, Windgrass",[4]; [18],95
same,"Plant response rating, Windgrass",[4]; [19],70
same,Russian Thistle plant response rating,[5]; [13],75
same,"Plant response rating, Russian Thistle",[5]; [14],80
same,"Plant response rating, Russian Thistle",[5]; [15],85
same,"Plant response rating (scale of 0 to 100), Russian Thistle","[5]; Preemergence, 31 g ai/ha",10
same,"Plant response rating, Russian Thistle",[5]; [16],25
same,"Plant response rating, Russian Thistle",[5]; [17],40
same,"Plant response rating, Russian Thistle",[5]; [18],75
same,"Plant response rating, Russian Thistle",[5]; [19],80
same,"Wheat, Winter plant response rating",[6]; [13],25
same,"Plant response rating, Wheat, Winter",[6]; [14],65
same,"Plant response rating, Wheat, Winter",[6]; [15],75
same,"Plant response rating (scale of 0 to 100), Wheat, Winter","[6]; Preemergence, 31 g ai/ha",15
same,"Plant response rating, Wheat, Winter",[6]; [16],40
same,"Plant response rating, Wheat, Winter",[6]; [17],50
same,"Plant response rating, Wheat, Winter",[6]; [18],75
same,"Plant response rating, Wheat, Winter",[6]; [19],35
same,Deadnettle plant response rating,[7]; [13],75
same,"Plant response rating, Deadnettle",[7]; [14],100
same,"Plant response rating, Deadnettle",[7]; [15],100
same,"Plant response rating (scale of 0 to 100), Deadnettle","[7]; Preemergence, 31 g ai/ha",0
same,"Plant response rating, Deadnettle",[7]; [16],0
same,"Plant response rating, Deadnettle",[7]; [17],70
same,"Plant response rating, Deadnettle",[7]; [18],100
same,"Plant response rating, Deadnettle",[7]; [19],90
same,"Ryegrass, Italian plant response rating",[8]; [13],70
same,"Plant response rating, Ryegrass, Italian",[8]; [14],95
same,"Plant response rating, Ryegrass, Italian",[8]; [15],98
same,"Plant response rating (scale of 0 to 100), Ryegrass, Italian","[8]; Preemergence, 31 g ai/ha",95
same,"Plant response rating, Ryegrass, Italian",[8]; [16],100
same,"Plant response rating, Ryegrass, Italian",[8]; [17],100
same,"Plant response rating, Ryegrass, Italian",[8]; [18],100
same,"Plant response rating, Ryegrass, Italian",[8]; [19],85
same,Lambsquarters plant response rating,[9]; [13],95
same,"Plant response rating, Lambsquarters",[9]; [14],100
same,"Plant response rating, Lambsquarters",[9]; [15],100
same,"Plant response rating (scale of 0 to 100), Lambsquarters","[9]; Preemergence, 31 g ai/ha",95
same,"Plant response rating, Lambsquarters",[9]; [16],95
same,"Plant response rating, Lambsquarters",[9]; [17],95
same,"Plant response rating, Lambsquarters",[9]; [18],100
same,"Plant response rating, Lambsquarters",[9]; [19],95
same,"Foxtail, Green plant response rating",[10]; [13],65
same,"Plant response rating, Foxtail, Green",[10]; [14],75
same,"Plant response rating, Foxtail, Green",[10]; [15],80
same,"Plant response rating (scale of 0 to 100), Foxtail, Green","[10]; Preemergence, 31 g ai/ha",15
same,"Plant response rating, Foxtail, Green",[10]; [16],20
same,"Plant response rating, Foxtail, Green",[10]; [17],50
same,"Plant response rating, Foxtail, Green",[10]; [18],100
same,"Plant response rating, Foxtail, Green",[10]; [19],70
same,Field Violet plant response rating,[11]; [13],90
same,"Plant response rating, Field Violet",[11]; [14],90
same,"Plant response rating, Field Violet",[11]; [15],90
same,"Plant response rating (scale of 0 to 100), Field Violet","[11]; Preemergence, 31 g ai/ha",35
same,"Plant response rating, Field Violet",[11]; [16],75
same,"Plant response rating, Field Violet",[11]; [17],80
same,"Plant response rating, Field Violet",[11]; [18],95
same,"Plant response rating, Field Violet",[11]; [19],95
same,Blackgrass plant response rating,[12]; [13],65
same,"Plant response rating, Blackgrass",[12]; [14],80
same,"Plant response rating, Blackgrass",[12]; [15],90
same,"Plant response rating (scale of 0 to 100), Blackgrass","[12]; Preemergence, 31 g ai/ha",50
same,"Plant response rating, Blackgrass",[12]; [16],60
same,"Plant response rating, Blackgrass",[12]; [17],80
same,"Plant response rating, Blackgrass",[12]; [18],85
same,"Plant response rating, Blackgrass",[12]; [19],70
